{
  "source": "patent US12213984B2",
  "about": "“Immunoregulatory agent” (KYUSHU UNIVERSITY, NATIONAL UNIVERSITY CORPORATION, priority 2015, dated 2025)",
  "key": {"[1]": {"biological_target": "T1, protein composed of the lobe B and the lobe C of the DHR-2 domain of DOCK2 (Homo sapiens, UniProt Q92608)", "T1 construct": "the HIS-SUMO tagged protein composed of the lobe B and the lobe C of the DHR-2 domain of DOCK2; made in house; host or cells: E. coli Arctic express DE3 (pET28a)", "T1 sequence (Q92608 1196-1622)": "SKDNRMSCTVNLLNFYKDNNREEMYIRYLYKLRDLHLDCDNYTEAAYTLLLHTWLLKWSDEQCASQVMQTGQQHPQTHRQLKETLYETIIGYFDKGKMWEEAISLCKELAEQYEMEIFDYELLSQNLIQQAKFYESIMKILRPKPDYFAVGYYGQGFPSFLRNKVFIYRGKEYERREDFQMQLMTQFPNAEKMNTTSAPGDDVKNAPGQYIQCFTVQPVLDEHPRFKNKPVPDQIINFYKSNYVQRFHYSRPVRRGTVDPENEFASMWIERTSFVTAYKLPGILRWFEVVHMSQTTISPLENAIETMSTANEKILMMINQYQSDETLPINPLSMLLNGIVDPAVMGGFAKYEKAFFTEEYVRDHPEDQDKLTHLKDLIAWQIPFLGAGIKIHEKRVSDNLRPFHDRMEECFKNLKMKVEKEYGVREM", "test": "ELISA binding of steroid compounds to DHR-2 domain of DOCK2", "settings": "steroid immobilized at 100 μg/ml, protein 2 μg/mL", "protocol": "First, various steroid compounds prepared at 100 μg/ml by using 100% methanol were added in an amount of 50 μL to a 96-well plate for ELISA (trade name “Immulon 4HBX”, Thermo Scientific) and immobilized for 1 hour in a clean bench by air drying. Subsequently, 5% bovine serum albumin (BSA) diluted with TBS (20 mM Tris-HCl-150 mM NaCl, pH 7.5) was added thereto in an amount of 180 μL, the steroid compounds were incubated for 6 hours at 4° C., and the wells were blocked. Thereafter, each of the wells was rinsed three times with 180 μL of PBS-0.01% Tween-20. […] Then, each of the wells was rinsed three times with 180 μL of PBS-0.01% Tween-20. Subsequently, horseradish peroxidase (HRP)-labeled histidine probe (Thermo Scientific) diluted 5,000× was added in an amount of 100 μL to each well, and allowed to incubate for 1.5 hours at room temperature. Thereafter, each of the wells was rinsed three times with 180 μL of PBS-0.01% Tween-20, a 3,3′,5,5′-tetramethyl benzidine (TMB) solution (Thermo Scientific) as an HRP chromogenic substrate was added in an amount of 100 μL to each well so as to initiate a chromogenic reaction, and a stop solution (0.16 M sulfuric acid, Thermo Scientific) was added in an amount of 100 μL to each well so as to stop the reaction. Then, the absorbance at a wavelength of 450 nm was measured."}, "[2]": {"biological_target": "T2, binding of the DHR-2 domain of DOCK2 to Rac (Homo sapiens, UniProt Q92608)", "T2 construct": "1 μg of a protein composed of the lobe B and the lobe C of the DHR-2 domain of DOCK2; made in house; host or cells: E. coli Arctic express DE3 (DOCK2 fragment); E. coli BL21 DE3 (GST-Rac)", "T2 sequence (Q92608 1196-1622)": "T1 sequence (Q92608 1196-1622)", "test": "pull-down assay using GST-Rac beads, binding of DOCK2 DHR-2 to Rac", "settings": "150 μM"}, "Trio": {"biological_target": "T3, Trio (Homo sapiens, UniProt O75962)", "T3 construct": "a DH-PH domain of the Trio protein and the Tiam protein; Histidine-SUMO (N); made in house; host or cells: E. coli Arctic express DE3 (pET28a)", "test": "in-vitro GEF assay, Rac activation by Trio (Experimental Example 1)", "assay_type": "biochemical", "method": "The selectivity of the effect of inhibiting the GEF of DOCK2 by cholesterol 3-sulfate was examined. All of DOCK2, Trio, and Tiam are GEFs activating Rac. In the presence of serially diluted cholesterol 3-sulfate, the Rac activation ability of a DOCK2 protein, a Trio protein, and a Tiam protein was measured by in-vitro GEF assay. For the in-vitro GEF assay, a labeled GTP (trade name, “Bodipy-FL-GTP”, manufactured by Invitrogen) was used, because it has a property of increasing fluorescence intensity when binds to Rac by the action of GEF. […]\nDuring the reaction, the change in the fluorescence intensity of Bodipy-FL-GPT was monitored using a spectrofluorometer Enspire manufactured by PerkinElmer Inc (excitation wavelength: 488 nm, emission wavelength: 514 nm). By calculation, the values obtained by the measurement were corrected such that the fluorescence intensity became 0 at a reaction starting point (0 second).\nThen, by using software (trade name “GraphPad Prism 5”, manufactured by GraphPad Software Inc.), an approximation curve was created which is obtained in a case where the calculated corrected values are plotted on the y-axis and time (t) is plotted on the x-axis. […]"}},
  "data": [
    {"smiles": "CC(C)CCC[C@@H](C)[C@H]1CC[C@H]2[C@@H]3CC=C4C[C@@H](OS(=O)(=O)O)CC[C@]4(C)[C@H]3CC[C@]12C", "note": "[C3S, cholesterol 3-sulfate]", "values": [
      {"measurement": "binding to the protein composed of lobe B and lobe C of the DHR-2 domain of DOCK2 (ELISA, absorbance 450 nm)", "setting": "[1]", "value": "specifically binds"},
      {"measurement": "inhibition of binding of DOCK2 DHR-2 to GST-Rac (Western blotting)", "setting": "[2]", "value": "specifically inhibits the binding of DHR-2 to Rac"},
      {"measurement": "IC50", "setting": "Trio", "value": "> 300", "unit": "µM"}
    ]}
  ]
}
